How the values were obtained:
[1] = tested on: pCMV.FOX.Luc-2; test: Ethidium bromide displacement assay (DNA condensation); type: binding; details: polyamine:cholesterol liposomes, FIGS. 1A-C
Experimental: The assay set forth in FIGS. 1A-C is based on a decrease in fluorescence that occurs when ethidium bromide is displaced from DNA by adding cationic liposomes. The lipoplexes were formed by adding a DNA-ethidium bromide solution to a solution containing variable amounts of polyamine:cholesterol liposomes. The lipoplexes were then treated with an equal volume of either water or a TRIS buffered solution at various pHs. The resulting fluorescence was then measured to determine the relative concentration of intercalated ethidium bromide.
Ethidium Bromide Displacement Assay. Ethidium bromide (153 μL of a 0.01% solution) was added to 96 μg of pCMV.FOX.Luc-2. This DNA-ethidium bromide solution was diluted to a final volume of 6 mL. Different concentrations of the polyamine liposomes were added to each well of a 96 well microplate, to which 50 μL of the DNA-ethidium bromide solution was added to obtain a final volume of 100 μL. After 5 min. the lipoplexes were treated with 100 μL of water or buffer and gently shaken. The resulting fluorescence at 250 nm excitation and 610 nm emission was measured using a SpectraMax XS microplate fluorometer (Molecular Devices, Oregon).

[2] = tested on: CHO cells; test: Transfection of CHO cells, luciferase assay; type: cell-based; details: for luciferase expression: FIG. 3, vs dimyristoyl analogs with the same DNA-binding domain; for transfection activity compared with LipofectAMINE PLUS and TransFast: two cell lines (CHO, NIH-3T3), luciferase and GFP vector
Experimental: (§1) Cell Culture. CHO cells (ATCC, Rockville, Md.) were cultured in 75 cm^2 cell culture flasks with HAMS F12 media containing 10% bovine calf serum. NIH 3T3 cells were grown in Dulbecco's modified Eagle's medium with 10% fetal calf serum. The cells were maintained at 37° C. in a 5% CO2 environment. Twenty-four hours prior to transfection, cells were split into 24 well plates at 60% confluence.
(§2) Transfection of CHO and NIH 3T3 Cells. Liposomal suspensions of the polyamines were diluted with Dulbecco's modified essential media (serum free) to obtain the desired concentration. The suspensions were vortex mixed followed by addition of an appropriate quantity of DNA to yield lipoplex preparations at the desired N/P ratio. […] Immediately prior to transfection, the cells were prepared by aspiration of the growth media. The lipoplex preparation was added to the cells (200 μL, 1 μg DNA/well). After incubation for 2 hours, the lipoplex solution was aspirated and replaced with growth media (500 μL),
(§3) Luciferase Assay. Cells were lysed 24 hours after lipoplex administration by adding 200 μL lysis buffer. Luciferase activity was assayed using the Enhanced Luciferase Assay Kit and a Moonlight 2010 luminometer (Pharmingen, San Diego, Calif.). Luciferase activity was measured as Relative Light Units (RLUs) from an aliquot of the cell lysate over a 10 sec. period. A luciferase standard curve was produced using serial dilutions of purified firefly luciferase (Pharmingen, San Diego, Calif.). Using the standard curve, relative light units are converted to μg of luciferase per μL of sample assayed, and expressed as μg luciferase per 60,000 cells. To ensure luminometer consistency, the instrument is calibrated with a luminometer light standard containing ^14C-toluene (Pharmingen, San Diego, Calif.).

[3] = tested on: NIH 3T3 cells; test: Transfection of NIH 3T3 cells, luciferase assay; type: cell-based; details: for luciferase expression: FIG. 4, vs dimyristoyl analogs with the same DNA-binding domain
Experimental: as §1, §2, §3

[4] = tested on: CHO cells; test: GFP-annexin V flow cytometric assay in CHO cells; type: cell-based; details: for GFP expression: FIG. 5, polyamines vs dimyristoyl analogs with the same DNA-binding domain
Experimental: Cell Culture. CHO cells (ATCC, Rockville, Md.) were cultured in 75 cm^2 cell culture flasks with HAMS F12 media containing 10% bovine calf serum. […] The cells were maintained at 37° C. in a 5% CO2 environment. Twenty-four hours prior to transfection, cells were split into 24 well plates at 60% confluence.
Flow Cytometry. Cells transfected with the plasmid vector pNDeGFP were trypsinized 24 h after transfection and resuspended in Dulbecco's phosphate buffered saline (DPBS). The resuspended cells were incubated 30 min. in a solution (1:40 dilution of commercial stock) containing annexin V conjugated to biotin (CalTag, Burlingame, Calif.). After a second DPBS wash, the cells were resuspended 30 min. in a solution (1:400 dilution of commercial stock) of the Tri-color fluorophore conjugated to streptavidin (CalTag, Burlingame, Calif.). After a final DPBS wash, the cells were resuspended in 500 μL DPBS. The cells were then analyzed using a dual channel FACScan (Becton Dickinson, San Jose, Calif.) with a 15 mW, 488 nm argon laser.
Using standard techniques, FACScan gating was set with control cells that were prepared simultaneously with the transfected cells. […] GFP fluorescence was measured with a 530/30 band pass filter on channel FL1. The Tri-color fluorescence was measured with a 675 nm band pass filter on channel FL2. Transfection and mean expression were determined using the FL1 autofluorescence signal from control cells, compared to the transfected cell population.
To further determine the influence of the chemical linker on cytotoxicity, flow cytometry was used to measure cell viability. Using a GFP-annexin V flow cytometric assay, cytotoxicity was simultaneously evaluated in transfected and total cell populations.

[5] = tested on: NIH 3T3 cells; test: GFP-annexin V flow cytometric assay in NIH 3T3 cells; type: cell-based; details: FIG. 6, polyamines vs dimyristoyl analogs with the same DNA-binding domain
Experimental: as §1, §2
Flow Cytometry. […] The cells were then analyzed using a dual channel FACScan (Becton Dickinson, San Jose, Calif.) with a 15 mW, 488 nm argon laser.
Using standard techniques, FACScan gating was set with control cells that were prepared simultaneously with the transfected cells. […] GFP fluorescence was measured with a 530/30 band pass filter on channel FL1. The Tri-color fluorescence was measured with a 675 nm band pass filter on […]. Transfection and mean expression were determined using the FL1 autofluorescence signal from control cells, compared to the transfected cell population.
Actinomycin-D (Sigma, St. Louis, Mo.) was used to treat non-transfected cells 24 hours prior to the assay to induce apoptosis. […] Non-treated cells were analyzed to establish baseline cytotoxicity and background auto-fluorescence. Each condition was transfected in triplicate and ten thousand cells were counted and simultaneously analyzed for GFP (transfection and expression) and Tri-color (annexin V) fluorescence. […]

SMILES: CCCCCCCC/C=C\CCCCCCCC(=O)OCC(COC(=O)CCCCCCC/C=C\CCCCCCCC)(COC(=O)CCNCCCCN(C)C)COC(=O)CCNCCCCN(C)C [polyamine 10]
- DNA condensation [1]: condensed DNA with efficiency
- luciferase expression ([2]; CHO cells): higher levels
- luciferase expression [3]: higher levels
- GFP expression [4]: higher levels
- GFP expression [5]: higher levels

SMILES: CCCCCCCC/C=C\CCCCCCCC(=O)OCC(COC(=O)CCCCCCC/C=C\CCCCCCCC)(COC(=O)CCNCCCN(C)C)COC(=O)CCNCCCN(C)C [polyamine 9]
- DNA condensation [1]: condensed DNA with efficiency
- transfection activity among the polyamines ([2]; CHO cells): most active analog
- luciferase expression ([2]; CHO cells): higher levels
- transfection activity compared with LipofectAMINE PLUS and TransFast [2]: roughly comparable to LipofectAMINE PLUS and TransFast
- luciferase expression [3]: higher levels
- GFP expression [4]: higher levels
- population of cells expressing GFP (GFP positive, Annexin V negative) ([4]; FIG. 5 black bars): largest population of cells expressing GFP with extremely low cytotoxicity
- GFP expression [5]: higher levels

SMILES: CCCCCCCCCCCCCC(=O)OCC(COC(=O)CCCCCCCCCCCCC)(COC(=O)CCNCCN(C)C)COC(=O)CCNCCN(C)C [polyamine 5]
- transfection activity among the polyamines [3]: superior to the other polyamines

SMILES: CCCCCCCC/C=C\CCCCCCCC(=O)OCC(COC(=O)CCCCCCC/C=C\CCCCCCCC)(COC(=O)CCNCCN(C)C)COC(=O)CCNCCN(C)C [polyamine 8]
- DNA condensation [1]: condensed DNA with efficiency
- luciferase expression ([2]; CHO cells): higher levels
- transfection activity compared with LipofectAMINE PLUS and TransFast [2]: roughly comparable to LipofectAMINE PLUS and TransFast
- transfection activity among the polyamines [3]: superior to the other polyamines
- luciferase expression [3]: higher levels
- GFP expression [4]: higher levels
- GFP expression [5]: higher levels

— US20040077888A1, “Polyamine-mediated transfection” (The Regents of the University of California, priority 2002, published 2004)
